Among the test systems are M14 melanoma; NCI-H460 lung; UACC-257 melanoma; CCRF-CEM leukemia; OVCAR-5 ovarian; NCI-H23 lung; CAKI-1 renal; HT29 colon; SK-OV-3 ovarian; A549 NSCLC.
Holding throughout (experiment): NCI-60 cell line screen, 48 h

Where “and” joins values, the source holds several entries; their conditions need not be identical. Equal entries are not always repeated.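 The compound was tested at five concentrations on cells cultured in 96-well plates, with a 48-hour exposure period. Here, GI50 denotes the concentration required for 50% inhibition of growth. Definition used: TGI = concentration required for complete inhibition of growth.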

With `CCOC(=O)c1ccc(N(CCOS(C)(=O)=O)CCOS(C)(=O)=O)cc1C`, the GI50 in the experiment with M14 melanoma was 40.5 µM; in the experiment on NCI-H460 lung, 27.8 µM; in the experiment on UACC-257 melanoma it was 69.6 µM; with CCRF-CEM leukemia it was 10 µM; with OVCAR-5 ovarian, 38.1 µM; in the experiment on NCI-H23 lung, 15.1 µM. Further, the GI50 was 6.32 µM in the experiment on CAKI-1 renal, 26.3 µM in the experiment on HT29 colon, 33.6 µM in the experiment with SK-OV-3 ovarian and 44.5 µM in the experiment with A549 NSCLC. In addition, the TGI in the experiment on M14 melanoma is greater than 100 µM; in the experiment with NCI-H460 lung it was greater than 100 µM; in the experiment with UACC-257 melanoma, greater than 100 µM; in the experiment on CCRF-CEM leukemia it was greater than 100 µM; in the experiment with OVCAR-5 ovarian, 94 µM; in the experiment on NCI-H23 lung, 55.5 µM. Moreover, the TGI in the experiment on CAKI-1 renal is 27.1 µM; in the experiment on HT29 colon it was greater than 100 µM; in the experiment with SK-OV-3 ovarian, greater than 100 µM; with A549 NSCLC, greater than 100 µM.
On to `COc1cc2ccc3c4c(OC)cc(OC)c(OC)c4c(=O)n(C)c3c2cc1OC`, for which the GI50 is 2.28 µM in the experiment with M14 melanoma; 3.09 µM in the experiment on UACC-257 melanoma; 0.486 µM in the experiment on CCRF-CEM leukemia; 2.09 µM with NCI-H23 lung; 6.83 µM in the experiment on CAKI-1 renal; 1.75 µM with HT29 colon. Also, in the experiment on A549 NSCLC, the GI50 is 1.18 µM. The TGI with M14 melanoma is 7.91 µM and > 33.9 µM; with NCI-H460 lung, greater than 33.5 µM; with UACC-257 melanoma, 16.7 µM and > 49.2 µM; in the experiment on CCRF-CEM leukemia, 2.04 µM; in the experiment on OVCAR-5 ovarian, 23.1 µM; in the experiment on NCI-H23 lung it was 16.7 µM and > 46 µM. Besides, the TGI with CAKI-1 renal is 16.7 µM and > 44.2 µM; in the experiment with HT29 colon, 4.77 µM; with SK-OV-3 ovarian, greater than 47.8 µM; with A549 NSCLC, 16.7 µM and > 35.8 µM.
Consider `Cc1cc(O)c(C(c2cccnc2)c2c(O)cc(C)[nH]c2=O)c(=O)[nH]1`, for which the TGI with M14 melanoma, in the experiment on NCI-H460 lung, in the experiment with UACC-257 melanoma, in the experiment on CCRF-CEM leukemia, in the experiment with OVCAR-5 ovarian and in the experiment on NCI-H23 lung was greater than 100 µM each time. Moreover, the TGI in the experiment with CAKI-1 renal, in the experiment with HT29 colon, in the experiment on SK-OV-3 ovarian and with A549 NSCLC was greater than 100 µM each time.
Take `COc1ccc(-c2nn(-c3cccc(NC(=O)Nc4ccc(Cl)c(C(F)(F)F)c4)c3)cc2-c2ccncc2)cc1Cl`: the GI50 in the experiment with M14 melanoma was 1.9 µM; in the experiment on NCI-H460 lung, 1.99 µM; in the experiment with UACC-257 melanoma, 2.44 µM; in the experiment on CCRF-CEM leukemia it was 1.9 µM; in the experiment with OVCAR-5 ovarian, 4.36 µM; with NCI-H23 lung it was 3.01 µM. Also, the GI50 in the experiment on CAKI-1 renal was 2.18 µM; in the experiment with HT29 colon, 3.18 µM; in the experiment on SK-OV-3 ovarian, 4.31 µM; in the experiment with A549 NSCLC it was 1.98 µM. Further, the TGI came out at 4.44 µM with M14 melanoma; 8.99 µM with NCI-H460 lung; 7.42 µM in the experiment on UACC-257 melanoma; 6.4 µM in the experiment with CCRF-CEM leukemia; 30.8 µM in the experiment on OVCAR-5 ovarian; 14.3 µM in the experiment with NCI-H23 lung. The TGI in the experiment on CAKI-1 renal is greater than 100 µM; in the experiment on HT29 colon it was 13.1 µM; in the experiment with SK-OV-3 ovarian, greater than 100 µM; with A549 NSCLC it was greater than 100 µM.
For the molecule `ClCc1ccc(-c2ccc(Cn3cnc4c(Cl)nc(Cl)nc43)cc2)cc1`, the GI50 in the experiment on M14 melanoma is 13.4 µM; with NCI-H460 lung, 3 µM; in the experiment on UACC-257 melanoma it was 1.5 µM; in the experiment with CCRF-CEM leukemia, 2.36 µM; in the experiment with OVCAR-5 ovarian, 17.8 µM; with NCI-H23 lung it was 3.18 µM. The GI50 in the experiment with CAKI-1 renal is 1.84 µM; in the experiment on HT29 colon, 1.72 µM; with SK-OV-3 ovarian it was 10.6 µM; in the experiment with A549 NSCLC, 1.73 µM. Besides, the TGI is 32.3 µM in the experiment on M14 melanoma; 10.6 µM with NCI-H460 lung; 3.64 µM in the experiment on UACC-257 melanoma; 5.9 µM with CCRF-CEM leukemia; 32.4 µM with OVCAR-5 ovarian; 14.4 µM with NCI-H23 lung. For the same molecule, the TGI worked out at 4.32 µM in the experiment on CAKI-1 renal, 3.31 µM in the experiment on HT29 colon, 22.6 µM in the experiment with SK-OV-3 ovarian and 3.59 µM in the experiment with A549 NSCLC.
As to `Cc1c(C(=O)CC(=O)C(=O)Nc2ccc(Cl)c(Cl)c2)[n+](=O)c2ccccc2n1[O-]`, the TGI in the experiment with M14 melanoma stood at 36.5 µM; in the experiment on NCI-H460 lung it was 57.1 µM; in the experiment on UACC-257 melanoma, 34.5 µM; in the experiment with CCRF-CEM leukemia it was 43 µM; in the experiment on OVCAR-5 ovarian, 86.4 µM; with NCI-H23 lung, 96 µM. Also, the TGI in the experiment with CAKI-1 renal was greater than 100 µM; in the experiment on HT29 colon, 74.5 µM; with SK-OV-3 ovarian, greater than 100 µM; with A549 NSCLC, 69.3 µM.
Turning to `O=C(O)CC(Nc1ccccc1)C(=O)O` (stereo not given), the TGI with M14 melanoma, with NCI-H460 lung, with UACC-257 melanoma, in the experiment with CCRF-CEM leukemia, with OVCAR-5 ovarian and in the experiment with NCI-H23 lung was greater than 100 µM throughout. Further, the TGI in the experiment on CAKI-1 renal, in the experiment on HT29 colon, in the experiment on SK-OV-3 ovarian and in the experiment on A549 NSCLC was greater than 100 µM each time.
Consider `COc1ccc(C(c2ccc(C(C)C)cc(=O)c2O)c2ccc3cccnc3c2O)cc1` (stereo not given), for which the TGI is 3.06 µM with M14 melanoma; 10.1 µM with NCI-H460 lung; greater than 100 µM with CCRF-CEM leukemia; 6.32 µM in the experiment with OVCAR-5 ovarian; 1.58 µM in the experiment on NCI-H23 lung; 5.15 µM with CAKI-1 renal. Also, the TGI was 20.2 µM in the experiment on HT29 colon, 16.4 µM in the experiment on SK-OV-3 ovarian and 12.3 µM in the experiment on A549 NSCLC.
As to `CN(C)C(=O)/N=c1\ss/c(=N\C(=S)N(C)C)n1-c1ccccc1`, the TGI with M14 melanoma was greater than 74.5 µM; with NCI-H460 lung, greater than 100 µM; in the experiment on UACC-257 melanoma, 28.6 µM; in the experiment on CCRF-CEM leukemia, greater than 48.8 µM; in the experiment with OVCAR-5 ovarian it was greater than 100 µM; in the experiment on NCI-H23 lung it was greater than 100 µM. In addition, the TGI with CAKI-1 renal, in the experiment with SK-OV-3 ovarian and with A549 NSCLC was greater than 100 µM each time. Also, the GI50 is 2.76 µM with CAKI-1 renal and 0.0483 µM in the experiment on A549 NSCLC.
`S=c1nc2[nH]ncc2c(N/N=C/c2ccccc2)[nH]1`: the GI50 is greater than 100 µM in the experiment on M14 melanoma; 93.6 µM in the experiment with NCI-H460 lung; greater than 100 µM in the experiment on UACC-257 melanoma; 78.6 µM in the experiment with CCRF-CEM leukemia; greater than 100 µM in the experiment with OVCAR-5 ovarian; greater than 100 µM with NCI-H23 lung. Further, the GI50 in the experiment with CAKI-1 renal is 31.9 µM; with SK-OV-3 ovarian it was greater than 100 µM; in the experiment with A549 NSCLC it was 98.3 µM. Further, the TGI in the experiment on M14 melanoma, with NCI-H460 lung, with UACC-257 melanoma, in the experiment with CCRF-CEM leukemia, in the experiment on OVCAR-5 ovarian and with NCI-H23 lung was greater than 100 µM each time. Besides, the TGI with CAKI-1 renal, in the experiment with SK-OV-3 ovarian and with A549 NSCLC was greater than 100 µM each time.

(Values after PubChem BioAssay (NCI).)
